Measurements taken from ChEMBL document CHEMBL5338801, “Carbohydrate Strengthens the Immunotherapeutic Effect of Small-Molecule PD-L1 Inhibitors” (J Med Chem, 2023).
Active and inactive are the calls of the source. The calls are words filed in the database; no cut-off is given here.

Tests used:
Jurkat = assay: Cytotoxicity against human Jurkat cells assessed as cell growth inhibition incubated for 48 hrs by MTT assay; assay type: functional, cell-based
[1] = target: Programmed cell death protein 1/Programmed cell death 1 ligand 1 (Homo sapiens) (UniProt Q15116+Q9NZQ7); conditions: dose 300.0 nM, time 15.0 min
[2] = target: Programmed cell death protein 1/Programmed cell death 1 ligand 1 (Homo sapiens, UniProt Q9NZQ7); assay: Inhibition of PD-1/PD-L1 (unknown origin) interaction incubated for 15 mins by HTRF assay; assay type: protein-complex assay
[3] = Partition coefficient, logD of compound in 1-octanol and phosphate buffer at pH 7.4 incubated for 1 hr under shaking condition by HPLC analysis; assay type: physicochemical; conditions: for logD at 1 h: 1-octanol/phosphate buffer, pH 7.4
[4] = target: Programmed cell death 1 ligand 1 (Homo sapiens) (UniProt Q9NZQ7); assay: Induction of human PD-L1 degradation expressed in MC38 cells at 0.1 to 10 uM cocultured for 72 hrs by Western blotting analysis; assay type: cell-based; conditions: dose 0.1-10 µM
[5] = Cytotoxicity against human Jurkat T cells assessed as cell viability at 10 uM incubated for 48 hrs by MTT assay; assay type: toxicity, cell-based; conditions: read-out: Activity
[6] = Toxicity in BALB/c mouse implanted with mouse CT26 cells assessed as weight loss at 25 mg/kg, ip qd administered for 10 days measured every 2 days for 12 days relative to control; assay type: organism-based; conditions: in vivo, 288 h, time 12 day
MC-38 = assay: Cytotoxicity against mouse MC38 cells assessed as cell death at 10 uM for 48 hrs by MTT assay; assay type: toxicity, cell-based; conditions: mc-38, 48 h
RKO [7] = assay: Cytotoxicity against human RKO cells over expressing human PD-L1 at above 10 uM; assay type: toxicity, cell-based
RKO [8] = assay: Cytotoxicity against human RKO cells over expressing human PD-L1 at 50 uM; assay type: toxicity, cell-based
[9] = target: Programmed cell death 1 ligand 1 (Homo sapiens) (UniProt Q9NZQ7); assay: Induction of human PD-L1 degradation expressed in MC38 cells at 10 uM cocultured for 72 hrs by Western blotting analysis; assay type: cell-based
[10] = target: Programmed cell death 1 ligand 1 (Homo sapiens) (UniProt Q9NZQ7); assay: Inhibition of human PD-L1 overexpressed in RKO cells assessed as reduction in membrane activity cocultured for 48 hrs by flow cytometry analysis; assay type: cell-based

Sequence of Programmed cell death protein 1/Programmed cell death 1 ligand 1 (Q15116 whole entry): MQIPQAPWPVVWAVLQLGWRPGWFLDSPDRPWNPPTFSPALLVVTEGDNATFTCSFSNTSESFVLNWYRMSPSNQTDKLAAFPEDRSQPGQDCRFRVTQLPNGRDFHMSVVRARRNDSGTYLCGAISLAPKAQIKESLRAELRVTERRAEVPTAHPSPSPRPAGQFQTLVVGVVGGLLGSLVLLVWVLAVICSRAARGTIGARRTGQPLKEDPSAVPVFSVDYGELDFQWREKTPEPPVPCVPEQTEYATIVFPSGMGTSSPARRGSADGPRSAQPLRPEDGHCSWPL
Sequence of Programmed cell death protein 1/Programmed cell death 1 ligand 1 (Q9NZQ7 whole entry): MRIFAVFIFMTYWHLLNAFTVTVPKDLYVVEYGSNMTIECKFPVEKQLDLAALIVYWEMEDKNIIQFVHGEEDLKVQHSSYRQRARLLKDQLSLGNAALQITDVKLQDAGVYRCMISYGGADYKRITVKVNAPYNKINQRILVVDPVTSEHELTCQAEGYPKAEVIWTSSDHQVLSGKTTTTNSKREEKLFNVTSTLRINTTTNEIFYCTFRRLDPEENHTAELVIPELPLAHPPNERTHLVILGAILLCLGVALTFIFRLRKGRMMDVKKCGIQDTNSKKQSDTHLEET
Sequence of Programmed cell death 1 ligand 1 (Homo sapiens) (Q9NZQ7 whole entry): as above

| SMILES | IC50 (Jurkat) [µM] | IC50 [2] [µM] | also measured |
| --- | --- | --- | --- |
| COc1ccc(CNCCO)cc1OCc1cccc(-c2ccccc2)c1C | 17.9 | – | inhibition [1]: 26.9% |
| COc1ccc(CNCc2cn([C@@H]3O[C@@H]4CO[C@@H](c5ccccc5)O[C@H]4[C@H](O)[C@H]3O)nn2)cc1OCc1cccc(-c2ccccc2)c1C | 6.2 | 2.96 | – |
| COc1cc(OCc2cccc(-c3ccccc3)c2C)cc(OC)c1CNCc1cn([C@@H]2OC[C@@H](O)[C@H](O)[C@H]2O)nn1 | 27.6 | 0.353 | – |
| COc1nc(OCc2cccc(-c3ccccc3)c2C)ccc1CNCc1cnnn1[C@H]1OC[C@@H](O)[C@H](O)[C@@H]1O | 26.7 | 0.118 | – |
| CC(C)(C)NCC(O)COc1cccc2c1CC(O)C(O)C2 (stereo unspecified) [NADOLOL] | – | – | logD ([3]; octanol/water, pH 7.4, 1 h): -1.2 |
| COc1nc(OCc2cccc(-c3ccccc3)c2C)ccc1CNCc1cn([C@@H]2O[C@H](CO)[C@@H](O)[C@H](O)[C@H]2O)nn1 | > 100 | 0.0561 | – |
| COc1cc(OCc2cccc(-c3ccccc3)c2C)cc(OC)c1CNCc1cn([C@@H]2OC[C@H](O)[C@@H](O)[C@H]2O)nn1 | 19.8 | 0.321 | – |
| COc1cc(OCc2cccc(-c3ccccc3)c2C)cc(OC)c1CNCCO[C@@H]1O[C@H](CO)[C@@H](O)[C@H](O)[C@H]1O | – | – | Activity [4]: inactive |
| COc1nc(OCc2cccc(-c3ccccc3)c2C)ccc1CNCCO | 2.8 | – | viability at 48 h, 10 µM [5]: 0%; logD at 1 h [3]: 3.23; inhibition [1]: 94.5% |
| COc1ccc(CNCc2cn([C@@H]3OC[C@@H](O)[C@H](O)[C@H]3O)nn2)cc1OCc1cccc(-c2ccccc2)c1C | 47.5 | 1.78 | – |
| COc1cc(OCc2cccc(-c3ccccc3)c2C)cc(OC)c1CNCc1cn([C@@H]2O[C@H](CO)[C@@H](O)[C@H](O)[C@H]2NC(C)=O)nn1 | > 100 | 0.03 | – |
| COc1cc(OCc2cccc(-c3ccccc3)c2C)cc(OC)c1CNCc1cn([C@H]2O[C@@H](C)[C@@H](O)[C@@H](O)[C@@H]2O)nn1 | 30.8 | 0.161 | – |
| COc1nc(OCc2cccc(-c3ccccc3)c2C)ccc1CNCCNC(C)=O | 2.6 | – | Activity [6]: Toxic; logD at 1 h [3]: 3.33; Activity (MC-38): Toxic; Activity (RKO [7]): Toxic |
| COc1cc(OCc2cccc(-c3ccccc3)c2C)cc(OC)c1CN[C@H](C)CO | 2.8 | – | logD at 1 h [3]: 3.25; Activity (MC-38): Toxic; Activity (RKO [7]): Toxic |
| COc1nc(OCc2cccc(-c3ccccc3)c2C)ccc1CNCCO[C@H]1O[C@H](CO)[C@@H](O)[C@H](O)[C@@H]1O | – | – | Activity (RKO [8]): Non-Toxic; Activity [9]: Active; inhibition [10]: Active |
| COc1cc(OCc2cccc(-c3ccccc3)c2C)cc(OC)c1CNCc1cn([C@@H]2O[C@H](CO)[C@@H](O)[C@H](O)[C@H]2O)nn1 | > 100 | 0.147 | – |
| Cc1c(COc2cc(CNCCO)ccc2Cl)cccc1-c1ccccc1 | 7.8 | – | inhibition [1]: 51.4% |
| COc1ccc(CNCc2cn([C@@H]3OC[C@@H](O)[C@@H](O)[C@H]3O)nn2)cc1OCc1cccc(-c2ccccc2)c1C | 31.3 | 2.26 | – |
| COc1cc(OCc2cccc(-c3ccccc3)c2C)cc(OC)c1CNCCO | 5.7 | – | viability at 48 h, 10 µM [5]: 0%; logD at 1 h [3]: 2.85 |
| COc1cc(OCc2cccc(-c3ccccc3)c2C)cc(OC)c1CNCc1cn([C@@H]2OC[C@@H](O)[C@@H](O)[C@H]2O)nn1 | 14.9 | 0.206 | – |
| COc1nc(OCc2cccc(-c3ccccc3)c2C)ccc1CNCc1cn([C@H]2O[C@@H](C)[C@@H](O)[C@@H](O)[C@@H]2O)nn1 | 24.5 | 0.178 | – |
| Cc1c(COc2ccc(CNCCO)cc2F)cccc1-c1ccccc1 | 5.4 | – | inhibition [1]: 57.1% |
| COc1ccc(CNCc2cn([C@H]3OC[C@@H](O)[C@H](O)[C@@H]3O)nn2)cc1OCc1cccc(-c2ccccc2)c1C | 43.5 | 0.503 | – |
| COc1nc(OCc2cccc(-c3ccccc3)c2C)ccc1CNCc1cn([C@@H]2O[C@@H]3CO[C@@H](c4ccccc4)O[C@H]3[C@H](O)[C@H]2O)nn1 | 8.8 | 0.461 | – |

| SMILES | IC50 (Jurkat) [µM] | IC50 [2] [µM] | also measured |
| --- | --- | --- | --- |
| COc1cc(OCc2cccc(-c3ccccc3)c2C)cc(OC)c1CNCc1cn([C@@H]2OC[C@H](O)[C@H](O)[C@H]2O)nn1 | 43.4 | 0.507 | – |
| COc1cc(OCc2cccc(-c3ccccc3)c2C)cc(OC)c1CNCc1cn([C@@H]2O[C@H](CO)[C@@H](O)[C@H](OC)[C@H]2O)nn1 | 44 | 0.355 | – |
| COc1ccc(CNCc2cn([C@H]3O[C@@H](C)[C@@H](O)[C@@H](O)[C@@H]3O)nn2)cc1OCc1cccc(-c2ccccc2)c1C | 53.1 | 1.92 | – |
| COc1nc(OCc2cccc(-c3ccccc3)c2C)ccc1CNCc1cn([C@@H]2O[C@H](CO)[C@@H](O)[C@H](OC)[C@H]2O)nn1 | 34.3 | 0.305 | – |
| COc1ccc(CNCc2cn([C@@H]3OC[C@H](O)[C@H](O)[C@H]3O)nn2)cc1OCc1cccc(-c2ccccc2)c1C | 49.2 | 1.24 | – |
| CN(C)CCCN1c2ccccc2Sc2ccc(Cl)cc21 [CHLORPROMAZINE] | – | – | logD at 1 h [3]: 3.18 |
| Cc1c(COc2ccc(Cl)c(CNCCO)c2)cccc1-c1ccccc1 | 12.4 | – | inhibition [1]: 36.7% |
| COc1ccc(CNCc2cn([C@H]3O[C@H](CO)[C@@H](O)[C@H](O)[C@@H]3O)nn2)cc1OCc1cccc(-c2ccccc2)c1C | 73.9 | 1.15 | – |
| COc1cc(OCc2cccc(-c3ccccc3)c2C)cc(OC)c1CNCc1cnnn1[C@H]1OC[C@@H](O)[C@H](O)[C@@H]1O | 24.9 | 0.169 | – |
| COc1ccc(CNCc2cn([C@@H]3O[C@H](CO)[C@@H](O)[C@H](OC)[C@H]3O)nn2)cc1OCc1cccc(-c2ccccc2)c1C | 50 | 0.384 | – |
| COc1nc(OCc2cccc(-c3ccccc3)c2C)ccc1CNCc1cn([C@@H]2OC[C@@H](O)[C@@H](O)[C@H]2O)nn1 | 16.9 | 0.0989 | – |
| CN(C)CCC=C1c2ccccc2CCc2ccccc21 [AMITRIPTYLINE] | – | – | logD at 1 h [3]: 3 |
| COc1ccc(CNCc2cn([C@@H]3O[C@H](CO)[C@@H](O)[C@H](O)[C@H]3O)nn2)cc1OCc1cccc(-c2ccccc2)c1C | > 100 | 1.76 | – |
| COc1nc(OCc2cccc(-c3ccccc3)c2C)ccc1CNCc1cn([C@@H]2O[C@H](CO)[C@@H](O)[C@H](O)[C@H]2NC(C)=O)nn1 | > 100 | 0.0237 | – |
| COc1ccc(CNCc2cn([C@@H]3OC[C@H](O)[C@@H](O)[C@H]3O)nn2)cc1OCc1cccc(-c2ccccc2)c1C | 53.9 | 1.48 | – |
| Cc1cc(OCc2cccc(-c3ccccc3)c2C)cc(C)c1CNCCO | 4.1 | – | inhibition [1]: 62.8% |
| COc1cc(OCc2cccc(-c3ccccc3)c2C)cc(OC)c1CNCc1cn([C@@H]2O[C@H](CO)[C@H](O)[C@H](O)[C@H]2O)nn1 | 27.3 | 0.454 | – |
| COc1ccc(CNCc2cn([C@@H]3O[C@H](CO)[C@@H](O)[C@H](O)[C@H]3NC(C)=O)nn2)cc1OCc1cccc(-c2ccccc2)c1C | > 100 | 1.09 | – |
| COc1nc(OCc2cccc(-c3ccccc3)c2C)ccc1CNCc1cn([C@@H]2O[C@H](CO)[C@H](O)[C@H](O)[C@H]2O)nn1 | > 100 | 0.174 | – |
| COc1nc(OCc2cccc(-c3ccccc3)c2C)ccc1CNCc1cn([C@H]2O[C@H](CO)[C@@H](O)[C@H](O)[C@@H]2O)nn1 | 46 | 0.164 | – |
| COc1cc(OCc2cccc(-c3ccccc3)c2C)cc(OC)c1CNCc1cn([C@H]2O[C@H](CO)[C@@H](O)[C@H](O)[C@@H]2O)nn1 | 50.5 | 0.114 | – |
| COc1ccc(CNCc2cn([C@@H]3O[C@H](CO)[C@H](O)[C@H](O)[C@H]3O)nn2)cc1OCc1cccc(-c2ccccc2)c1C | > 100 | 0.612 | – |
| COc1cc(OCc2cccc(-c3ccccc3)c2C)cc(OC)c1CNCc1cn([C@@H]2O[C@@H]3CO[C@@H](c4ccccc4)O[C@H]3[C@H](O)[C@H]2O)nn1 | 4.5 | 1.09 | – |
| COc1nc(OCc2cccc(-c3ccccc3)c2C)ccc1CNCc1cn([C@@H]2OC[C@@H](O)[C@H](O)[C@H]2O)nn1 | 25.5 | 0.11 | – |
